Assays:
fetal pancreas = assay: Fetal pancreatic vascularization with taurine supplementation; assay type: in vivo, Wistar rats; conditions: LP diet + taurine in drinking water; fetal day 21.5
Description: Animals and diets were as described above in Example 1. The fetal pancreas was removed at day 21.5. Vascular density, expressed as a percent of area, and number of blood vessels per unit area were evaluated.

VEGF = assay: Pancreatic VEGF immunoreactivity with dietary taurine supplementation; assay type: in vivo, Wistar rats; conditions: decrease by low protein diet; regardless of developmental stage
Description: (§1) Animals and diets were prepared as described in Example 8. The pancreas was removed, and the presence of Fas, Fas ligand, inducible nitric oxide synthase (iNOS) and vascular endothelial growth factor (VEGF) were evaluated in pancreatic sections using immunoreactivity.

[1] = 3 mmol/l taurine; SIN-1
Description: Chemiluminescence measurements. Luminol (5-amino-2,3-dihydro-1-4-phtalazinedione) at 400 μmol/l (Sigma Chemical Co.), taurine (0.3 or 3 mmol/l), methionine (0.1 or 1 mmol/l) and β-alanine (0.3 or 3 mmol/l) stock solutions were prepared in PBS. Sydnonimine (SIN-1), also known as 3-morpholinosydnonimine, a source of peroxynitrite, was purchased from Sigma Chemical Co. SIN-1 was prepared as 100 μmol in 1 mol/l NaOH. A reaction was initiated by simultaneous injection of luminol and SIN-1 into wells containing PBS either alone or with supplemental amino acid levels as noted above. Chemiluminescence emitted by luminol in the presence of peroxynitrite was measured every 30 seconds over 20 minutes in a chemifluorophotometer (MicroLumat LB96P, EG&G BERTHOLD), and was quantified as light intensity (10^8 RLU).
Nitric oxide is a reactive free radical which leads to peroxynitrite formation, another reactive free radical, by interaction with superoxide (NO+OO^−→ONOO^−). […] Luminol-derived chemiluminescence induced by peroxynitrite produced by the decomposition of sydnonimine (SIN-1) was evaluated to investigate the possibility that taurine quenched the peroxynitrite formed from NO.

fetal islet β cells = assay: SNP-induced apoptosis in cultured fetal islets (TUNEL, confocal microscopy); assay type: cell-based, Wistar rats; conditions: for in vitro apoptotic rate: absence of SNP
Description: Animals and Diets. Adult virgin female Wistar rats were caged overnight with males and copulation was verified the next morning. Animals were maintained at 25° C. with a 10 h-14 h dark-light cycle. Pregnant rats were divided into two groups and fed one of the following isocaloric diets: either a control diet (C) containing 20% protein or a low protein diet (LP) containing 8% protein. The composition of the diet was as described previously by Snoeck et al. 1990 (Biol. Neonate 57, 107-118). The diets were purchased from Hope Farms (Woerden, Holland). Animals in both the groups had free access to water at all times. At 21.5 days of gestation, females were sacrificed by decapitation and fetuses removed.
Islet culture and treatment. Fetal islets were isolated as described by Mourmeaux et al. 1985 (Molecular and Cellular Endocrinology 39:237-246). Islets were cultured in 35 mm Petri-dishes (Falcon plastics, Los Angeles, Calif.) in RPMI 1640 medium (Gibco, Grand Island, N.Y., USA) with 10% Fetal Bovine Serum and antibiotics (penicillin 200 U/ml, streptomycin 0.2 mg/ml). Petri dishes were incubated at 37° C. with 5% CO2 in air. The culture medium was changed daily after the second day. On the 5th day of culture, islets were rinsed twice with serum free DME/F12 medium (1:1, v/v, Gibco, Paisley, Scotland) and subsequently incubated for 42 hours in this medium. […]
TUNEL method for evaluating apoptosis. Apoptosis was evaluated by the TUNEL method described herein, and visualized with confocal microscopy. Cultured islets were fixed in methanol and stored at −20° C. until analysis. The tissue was then washed with phosphate buffered saline (PBS) for 3 min, and a terminal deoxynucleotidyl transferase (TdT) reaction buffer (50 μl) was added. The 50 μl of TdT solution was prepared using 10 μl of 5× concentrated buffer solution (1 mol/l potassium cacodylate; 125 mmol/l Tris-HCl, pH 6.6; 1.26 mg bovine serum albumin). Cobalt chloride (5 μl of 25 mmol/l), 0.5 μl (12.5 units) of TdT (both from Boehringer Mannheim, Germany), and 0.25 nmoles of BODIPY-FL-X-14-dUTP (Molecular Probes, Eugene, Oreg. USA) were added, along with distilled water, up to 50 μl. Islets were incubated in Petri dishes with the TdT reaction buffer for 60 min at 37° C., then rinsed twice with 15 mmol/l EDTA (pH 8.0) in PBS and once with 0.1% Triton X-100 in PBS. Then, 2 ml of PBS containing 2.5 μg/ml of propidium iodide (Molecular Probes, Eugene, Oreg. USA) was added to the dishes for 5 min. Finally, islet cells were washed with 15 mmol/l EDTA (pH 8.0). Islet cells were then double-labelled for apoptotic nuclei, showing the BODIPY-FL-dUTP label in […] and total nuclei with propidium iodide in red.
Confocal microscopy. Staining probes were visualised through a confocal laser scanning microscopy system (MRC-1024 UV; BIO-RAD, UK) equipped with Argon ion and Krypton/Argon ion lasers. BODIPY-FL was excited at 503 nm, ethidium bromide at 510 nm, propidium iodide at 536 nm and Hoechst 33342 at 346 nm. The emissions were recorded respectively at 522/32 nm, 605/32 nm and 455/30 nm. Four to six optical sections were collected at every 15 μm through the islet. The number of BODIPY-FL-positive or ethidium bromide-positive nuclei were reported and expressed as a percentage of the total number of nuclei.
Animals, diets, and fetal islet isolation procedures were conducted as described in Example 1.

fetal islet cells = assay: In vitro fetal islet cell proliferation (BrdU incorporation); assay type: cell-based, Wistar rats; conditions: LP islets; taurine 1.25 or 2.5 mmol/l in culture media
Description: Animals and diets were as described in Example 1. Fetuses were removed at fetal day 21.5, and fetal islet cells were isolated and treated as described in Example 1. Taurine was added to incubation medium at levels of either 0 mmol/l, 1.25 mmol/l or 2.5 mmol/l. Proliferation was evaluated using bromodeoxyuridine (BrdU) incorporation into DNA.

Fas = assay: Islet Fas immunoreactivity with dietary taurine supplementation; assay type: in vivo, Wistar rats; conditions: post-natal day 14
Description: as §1

Fas ligand = assay: Islet Fas ligand immunoreactivity with dietary taurine supplementation; assay type: in vivo, Wistar rats; conditions: post-natal day 14
Description: as §1

IGF-II = assay: Islet IGF-II immunoreactivity with dietary taurine supplementation; assay type: in vivo, Wistar rats; conditions: LP diet with taurine
Description: Animals and diets were prepared as described in Example 7. The pancreas was removed, and IGF-II immunoreactivity was evaluated according to a method described by […] et al., (Endocrinology 1999;140: 4861-4873). Expression of IGF-II, considered a survival factor for cells, was measured as an indicator of the overall health of the β cells.

**Q.** For `NCCS(=O)(=O)O` [taurine, 2-aminoethylsulfonic acid], which “blood vessel numbers per unit area” value (fetal pancreas) is on record?
**A.** restoring both vascularization parameters to the level of the control groups

**Q.** What about the “vascular density (percent of area)” value (fetal pancreas) of the same compound?
**A.** restoring both vascularization parameters to the level of the control groups

**Q.** What about the “VEGF immunoreactivity in the pancreas” value (VEGF) of the same compound?
**A.** reverses the effect

**Q.** And the “luminol chemiluminescence (peroxynitrite quenching)” value [1]?
**A.** dramatically decreased

**Q.** And the “reduction of SNP-induced apoptosis” value (fetal islet β cells; 0.3 mmol/l taurine, SNP 100 μmol/l, LP islets)?
**A.** 60%

**Q.** What about the “reduction of SNP-induced apoptosis” value (fetal islet β cells; 0.3 mmol/l taurine, SNP 100 μmol/l, control islets) of the same compound?
**A.** 30%

**Q.** What about the “in vitro apoptotic rate” value (fetal islet β cells; control diet (C) islets, 0.3 mmol/l taurine) of the same compound?
**A.** 1.5±0.2%

**Q.** And the “in vitro apoptotic rate” value (fetal islet β cells; control diet (C) islets, 3 mmol/l taurine)?
**A.** 1.4±0.3%

**Q.** And the “in vitro apoptotic rate” value (fetal islet β cells; low protein diet (LP) islets, 0.3 mmol/l taurine)?
**A.** 2.1±0.3%

**Q.** And the “in vitro apoptotic rate” value (fetal islet β cells; low protein diet (LP) islets, 3 mmol/l taurine)?
**A.** 2.1±0.4%

**Q.** What about the “percentage of β cells positive for apoptosis” value (fetal islet β cells; taurine 0.3 or 3 mmol/l, SNP 100 μmol/l, both diet groups) of the same compound?
**A.** significantly decreased

**Q.** And the “in vitro islet cell proliferation rate (BrdU)” value (fetal islet cells)?
**A.** increased LP islet cell proliferation rate to the levels observed in C islets having no taurine addition

**Q.** And the “immunoreactive Fas within islets” value (Fas)?
**A.** reduced

**Q.** What about the “Fas ligand presence in islets” value (Fas ligand) of the same compound?
**A.** reduced

**Q.** And the IGF-II immunoreactivity (IGF-II; fetal period (F21.5))?
**A.** increased IGF-II immunoreactivity to a level consistent with the C diet animals

**Q.** And the IGF-II immunoreactivity (IGF-II; post-natal)?
**A.** restored IGF-II immunoreactivity levels to the point that the control IGF-II level was surpassed

From US20030180345A1, “Compositions and methods for inhibiting islet dysfunction and autoimmune disorders” (priority 2000, published 2003)
